From patent publication US11226332B2, “Method for the detection, preparation and depletion of CD4+ t lymphocytes” (IMCYSE SA, priority 2013, dated 2022)

Tests used:
[1] = tested on: MOG-specific naïve CD4+ T cells; assay: DRB1*1501 MHC class II tetramers loaded with MOG peptide, detection of naïve CD4+ T cells by facs; assay type: cell-based, human; details: DRB1*1501 tetramers loaded with peptide, 2 h at 37° C, control: same peptide without thioreductase motif (SEQ ID NO:2)
Procedure: Naïve CD4+ T cells are prepared from the peripheral repertoire of DRB1*1501+ subjects susceptible to suffer from multiple sclerosis, using magnetic beads to remove CD4(−) cells and memory cells, as described in the art. Tetramers of DRB1*1501 are made as known in the art (Kasprowicz V et al. (2006) J. Virol. 80, 11209-112017), including a fluorescent label such as Ficoerythrin. A synthetic peptide is produced, which encompasses the corresponding class II-restricted MOG
T cell epitope and a thioreductase motif CGPCSRVVHLYRNGK D [SEQ ID NO: 1], which corresponds to amino acid residues 47-58 of the MOG protein.
Tetramers are loaded with peptide of SEQ ID 1 overnight at room temperature in the appropriate buffer conditions as known in the art. Loaded tetramers are then washed and incubated with naïve CD4+ T cells for 2 h at 37° C. The suspension is then read with a fluorescence-activated cell sorting (facs) system and the proportion of naïve cells specific to the MOG peptide evaluated Control experiments are performed with MHC complex with the same peptide without thioreductase motif. SRVVHLYRNGKD [SEQ ID NO:2].

[2] = tested on: Dby-specific CD4+ T cells; assay: Depletion of Dby-specific CD4+ T cells with peptide-loaded H-2b class II beads, then male bone marrow grafting in reconstituted RAG2 KO mice; assay type: in vivo, mouse; details: RAG2 KO mice reconstituted with female H-2b lymphocytes depleted on beads coated with class II H-2b molecules loaded with peptide
Excerpt: In the mouse model, male bone marrow is rejected by syngeneic females due to recognition of H-Y encoded antigens among which the Dby protein plays a major role. A majority of CD4+ T cells recognize an epitope made of residues FNSNRANSS of the murine Dby antigen which is encoded by the […]
A synthetic peptide made of this class II restricted T cell epitope with a thioreductase motif is produced, corresponding to CHGCFNSNRANSS [SEQ ID NO:5] and the corresponding Dby peptide in natural configuration is produced as a control, namely […].
Lymphocytes from the spleen of female H-2b mice are prepared by magnetic bead sorting. The cells are then incubated with a suspension of beads coated with class II H-2b molecules and loaded with peptide of SEQ ID 5 or of SEQ ID 6. Lymphocytes T cells, containing all CD4+ T cells not retained on beads and CD8+ T cells, are used to reconstitute RAG2 KO mice, which are then engrafted by the bone marrow of a male syngeneic donor. RAG2 KO mice have no functional adaptive immune system and are therefore unable to reject the graft. Rejection is thereby depending only of cells present in the passively transferred population.

[3] = tested on: human peripheral blood CD4+ T cells; assay: DQ8 tetramers loaded with insulin B9-23 peptide, facs sorting of CD4+ T cells for TCR alpha chain sequencing; assay type: cell-based; details: control SEQ ID 10 without thioreductase motif
Excerpt: Expression of human DQ8 MHC class II molecule is associated with reactivity to a major epitope of insulin, located in the beta chain of insulin within the amino acid sequence 9-23. Human peripheral blood naïve T cell repertoire frequently contains cells expressing germline encoded alpha chain sequences, called Trav13-1, associated with various beta chain sequences, but which are sufficient as to confer a low affinity reaction with the B9-23 insulin epitope when presented by DQ8.
Peptides encompassing the sequences of the B9-23 epitope with a thioreductase motif and a one amino acid glycine linker are produced, namely […] INS9-23 (SEQ ID 9) and control peptides without thioreductase motif and linker […] INS9-23 (SEQ ID 10)
Tetramers of DQ8 are produced and loaded with each one of peptides of SEQ ID 9 or SEQ ID 10. Loaded tetramers are incubated with human peripheral blood CD4+ T cells. Cells are washed, analysed by facs and sorted out. Cells are then washed from tetramers and used for TCR alpha chain sequencing using corresponding primers.

[4] = tested on: GAD65-specific CD4+ T cells; assay: Sorting of GAD65-specific CD4+ T cells from NOD mouse spleen with peptide-loaded class II tetramers and expansion to cytolytic CD4+ T cells; assay type: cell-based, NOD mice
Procedure: NOD (non-obese diabetic) mice spontaneously develop diabetes by progressive destruction of insulin-producing Langerhans islet cells. NOD mice are considered as a representative pre-clinical model of human IDDM. Effector CD4+ T cells against GAD65 are prepared from the spleen of diseased animals by first depleting non-CD4+ cells. CD4+ cells are then incubated with class II tetramers loaded with a GAD65 class II restricted epitope encompassing a thioreductase motif in flanking residues.
The sequence of the peptide is therefore CRLCKVAPVIKARMM (GAD65 524-543) (SEQ ID NO: 7) A peptide of GAD65 without thioreductase motif is prepared for control experiments KVAPVIKARMM (SEQ ID NO: 8).
Cells are then sorted by facs according to their binding of peptide-loaded tetramers. Positive cells are then maintained in culture and stimulated with APC loaded with peptide of SEQ ID 7 to generate cytolytic CD4+ T cells, as described in the WO2008017517 patent application.

[5] = tested on: CD4+ T cells from peripheral blood; assay: MHC class II tetramers loaded with influenza hemagglutinin peptide, counting of CD4+ T cells by facs before and after vaccination; assay type: cell-based; details: fluorescence-labeled MHC class II tetramers loaded with peptide; compared with peptide of SEQ ID 4 without thioreductase motif

## CGPCSRVVHLYRNGKD [SEQ ID 1]
[1]
  detection of naïve CD4+ T cells specific to the MOG sequence: able to detect naïve CD4+ T cells

## FNSNRANSS (Dby epitope) [SEQ ID 6]
[2]
  graft acceptance (male bone marrow): no improvement of graft acceptance

## CGHCGSHLVEALYLVCGERG (redox motif + glycine linker+ insulin epitope) [SEQ ID 9]
[3]
  number of cells obtained by tetramer sorting for TCR sequencing: obtained in sufficient number as to allow TCR sequencing

## CRLCKVAPVIKARMM (redox motif + GAD65 epitope) [SEQ ID 7]
[4]; tetramer sorting compared with the method of WO2008017517 (peptide added to T cells from spleen of NOD mice)
  yield of GAD65-specific cytolytic CD4+ T cells: higher
[4]; tetramers loaded with peptide of SEQ ID 7 instead of peptide of SEQ ID 8
  yield of GAD65-specific cytolytic CD4+ T cells: significantly increased

## CGHCKYVKQNTLKHEMAGG (redox motif + influenza hemaglutinin epitope) [SEQ ID 3]
[5]
  number of CD4+ T cells detected in peripheral blood: higher number of CD4+ T cells are detected
